The structures appear in SMILES notation. Entries after “also recorded” stand apart in the source; their conditions may differ. Read-outs that look alike come from different tables or passages of the source.

Experiment [1] addresses T1, Aβ (Homo sapiens, UniProt P05067, E693Q).
T1 construct: Lyophilized human amyloid-β(1-40) with E22Q mutation ‘Dutch type’; purchased Peptide facility, Dutch Cancer Institute, Amsterdam; host or cells: synthetic peptide
The experiment is described as follows: Binding of Aβ from solution to immobilized small compounds. The conditions noted are these: Aβ 100 μg/ml. On the procedure: (§1) To test the ability of the twelve selected compounds (see Table 7) to bind to misfolded proteins, […] Greiner Microlon high binding plates, Nunc amino Immobilizer plates and Nunc Maxisorp plates. Compounds were coated in 100 mM NaHCO3 pH 9.6, 50 μl/well, 1 h at room temperature with agitation. As a control, wells were coated with buffer only. After blocking of the plates, wells were overlayed with solutions of 0.1/1/10 μg/ml Hb-AGE or 10/100 μg/ml Aβ, in binding buffer (PBS/0.1% Tween20). After washing, binding of Hb-AGE was assessed by overlaying wells with 1 μg/ml hybridoma antibody 4B5, which binds to glycations(^2), followed by RAMPO. Binding of Aβ was visualized using 500× diluted anti-Aβ antibodies (mouse antibody beta-amyloid Clone 6F/3D #M0872, lot 00003503, DAKOCytomation; β-amyloid (H-43) SC-9129, 200 μg/ml rabbit polyclonal IgG, Santa Cruz Biotechnology) and RAMPO/SWARPO in a 1:1 ratio. Finally, wells were overlayed with OPD/H2O2 solution, and H2SO4, before absorbance readings at 490 nm.

The target of experiment [2] is T2, Hb-AGE (Homo sapiens, UniProt P68871+P69905).
T2 construct: purchased Sigma-Aldrich H7379
T2 sequence (P69905 2-142 limits assumed): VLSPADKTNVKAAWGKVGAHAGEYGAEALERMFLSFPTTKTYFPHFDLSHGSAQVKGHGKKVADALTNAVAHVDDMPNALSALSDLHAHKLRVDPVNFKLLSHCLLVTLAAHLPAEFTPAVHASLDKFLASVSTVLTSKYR
T2 sequence (P68871 2-147 limits assumed): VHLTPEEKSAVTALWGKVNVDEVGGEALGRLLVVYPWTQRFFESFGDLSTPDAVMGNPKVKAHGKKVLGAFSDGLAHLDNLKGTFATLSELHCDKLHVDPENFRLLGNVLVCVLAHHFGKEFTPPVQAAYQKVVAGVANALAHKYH
The experiment can be described thus: Binding of Hb-AGE from solution to immobilized small compounds. On the procedure:
as §1

Experiment [3] deals with T3, factor XII (Homo sapiens, UniProt P00748).
T3 sequence (P00748 20-615): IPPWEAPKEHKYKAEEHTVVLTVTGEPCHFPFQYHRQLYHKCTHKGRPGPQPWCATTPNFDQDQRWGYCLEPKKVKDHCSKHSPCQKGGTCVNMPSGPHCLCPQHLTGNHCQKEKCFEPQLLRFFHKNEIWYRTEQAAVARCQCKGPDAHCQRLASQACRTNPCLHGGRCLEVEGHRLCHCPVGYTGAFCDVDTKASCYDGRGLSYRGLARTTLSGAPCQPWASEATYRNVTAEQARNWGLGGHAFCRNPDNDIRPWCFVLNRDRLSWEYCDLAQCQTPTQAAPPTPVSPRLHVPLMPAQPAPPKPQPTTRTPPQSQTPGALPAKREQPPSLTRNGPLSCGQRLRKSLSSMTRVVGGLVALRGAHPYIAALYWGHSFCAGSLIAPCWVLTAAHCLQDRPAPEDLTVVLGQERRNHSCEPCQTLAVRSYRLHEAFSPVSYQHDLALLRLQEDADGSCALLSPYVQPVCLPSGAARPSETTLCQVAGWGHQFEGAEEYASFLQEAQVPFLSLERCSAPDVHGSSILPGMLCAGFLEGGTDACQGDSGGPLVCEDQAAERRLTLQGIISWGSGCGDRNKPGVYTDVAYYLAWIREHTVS
The experiment is described as follows: Factor XII activation assay (chromogenic, prekallikrein, Chromozyme-PK). It is filed as biochemical. Also on record: purchased Calbiochem. The conditions noted are these: for activation of factor XII by compound alone: without protein cofactor, ellagic acid 50 μg/ml. On the procedure:
For this purpose, in a reaction volume of 60 μl the following components were mixed: 10 μl of 300 μg/ml ellagic acid solution or control buffer, 10 μl of 750 μg/ml I or control buffer, 20 μl of a solution comprising [HEPES-buffered saline, 1.96 μg/ml prekallikrein (Calbiochem), 10 mM ZnCl2, 2.13 μg/ml high molecular weight kininogen (Calbiochem); ‘PK mix’ ], 10 μl Chromozyme-PK (Roche, 1 mg/ml aliquot) and 10 μl of a solution comprising 1 mM ZnCl2, HEPES-buffered saline and 4.76 μg/ml factor XII (Calbiochem); ‘FXII mix’. Nunc Immobilizer plates were blocked with PBS with 1% Tween20 for 1 hour at room temperature under constant motion. All reagents were kept on ice throughout preparation of the experiment. The factor XII activating capacity of ellagic acid (Sigma, E-2250, St. Louis, Mo., USA) or I (Cealb, Sanquin, Amsterdam, The Netherlands) alone, and combination thereof was determined in duplicate. After adding 10 μL of I solution or buffer and 10 μl of ellagic acid solution or buffer to the wells, 20 μL of PK mix was added to each well. Ten μL of kallikrein substrate Chromozyme PK was added to each well, followed by 10 μL of freshly prepared FXII mix. Final I and ellagic acid concentrations are 125 μg/ml and 50 μg/ml. Absorbance was measured at 405 nm at 37° C. for 3 hours with brief shaking every minute.

The target of experiment [4] is tPA (Homo sapiens, UniProt P00750). The experiment can be described thus: tPA serine protease activity with OVA heated in the presence of compounds (substrate S-2765). It is filed as biochemical. Also on record: purchased Boehringer Ingelheim Actilyse. The conditions noted are these: OVA heated with 1 mg/ml compound, 80-, 160- or 320-fold diluted, 100 nM tPA. On the procedure:
For this purpose, the influence of the compounds on heat-denaturation of OVA was analyzed (see above: Thioflavin T fluorescence measurements). Heated OVA at 1 mg/ml in PBS in the presence or absence of 1 mg/ml of the twelve compounds listed in Table 7 in PBS/DMSO (final DMSO concentration 1%) was used 80-fold or 160-fold or 320-fold diluted (final heated OVA concentration and compound concentration was 12.5 or 6.3 or 3.1 μg/ml; final DMSO concentration was 0.013% and 0.006% and 0.003%).

Experiment [5] has as its target T4, Hb-AGE (glucose-6-phosphate modified human haemoglobin) (Homo sapiens, UniProt P68871+P69905).
T4 construct: purchased Sigma-Aldrich H7379
The experiment is described as follows: ELISA binding of tPA to immobilized Hb-AGE, compounds co-incubated with tPA. The conditions noted are these: compound mixed with tPA, control without compound = 100. The procedure: The small compound library is depicted in Tables 4-5. […] Binding experiments were performed in single wells per compound, in a duplicate experiment. Binding data obtained with this duplicate experiment was averaged.
• 1. […] Coat buffer in control wells. • 2. wash three times with wash buffer • 3. Block all wells with 300 μl 0.5*recommended concentration Roche blocking reagent for 30 minutes at room temperature, with agitation • 4. wash twice • 5. […] Incubate for 30 minutes at room temperature, with agitation • 7. wash five times with TBS/0.1% Tween20 • 8. […] Incubate for 30 minutes at room temperature, with agitation • 10. wash five times with TBS/0.1% Tween20 • 11. Fill wells with 3000× diluted horse raddish peroxidase-labeled polyclonal rabbit anti-mouse antibody (RAMPO, DAKOCytomation) • 12. Incubate for 20 minutes at room temperature, with agitation • 13. Wash five times with TBS/0.1% Tween20 • 14. Wash twice with PBS • 15. Stain with 100 μl TMB, stop with 50 μl 10% H2SO4 • 16. Read absorbance at 450 nm

The conditions of experiment [6]: information found on the www, search completed Spring 2006, cited from earlier work.

T4 sequence (P69905 2-142 limits assumed): as the sequence (P69905 2-142 limits assumed) above
T4 sequence (P68871 2-147 limits assumed): as the sequence (P68871 2-147 limits assumed) above
Chain of tPA (P00750 36-562): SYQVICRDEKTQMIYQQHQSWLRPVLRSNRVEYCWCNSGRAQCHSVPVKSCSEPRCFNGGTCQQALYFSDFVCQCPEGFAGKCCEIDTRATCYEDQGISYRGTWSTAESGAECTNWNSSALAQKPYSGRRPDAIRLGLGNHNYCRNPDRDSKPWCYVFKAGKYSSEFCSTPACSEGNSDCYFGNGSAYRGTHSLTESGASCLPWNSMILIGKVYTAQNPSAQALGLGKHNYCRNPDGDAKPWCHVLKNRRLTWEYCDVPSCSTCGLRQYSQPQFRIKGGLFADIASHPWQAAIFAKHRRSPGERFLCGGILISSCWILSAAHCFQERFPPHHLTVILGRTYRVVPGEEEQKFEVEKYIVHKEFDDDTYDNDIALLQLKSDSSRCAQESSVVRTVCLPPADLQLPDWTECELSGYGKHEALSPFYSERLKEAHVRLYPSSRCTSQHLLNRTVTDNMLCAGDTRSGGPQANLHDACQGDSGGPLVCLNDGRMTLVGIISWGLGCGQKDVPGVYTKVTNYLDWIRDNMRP

On to `O=c1oc2c(O)c(O)cc3c(=O)oc4c(O)c(O)cc1c4c23` [compound 117, Ellagic acid hydrate], for which the “Signal (a.u.)” value in experiment [1] (Nunc Maxisorp, coat 100 μg/ml) was 0.054 a.u; in experiment [2] (Greiner Microlon, coat 100 μg/ml, Hb-AGE 10 μg/ml), 0.13 a.u; in experiment [2] (Nunc Maxisorp, coat 100 μg/ml, Hb-AGE 10 μg/ml), 0.15 a.u. In addition, the “activation of factor XII/kallikrein generation, compound combined with human serum albumin” value in experiment [3] (50 μg/ml ellagic acid with 125 μg/ml HSA, hydrate) was “potent activator of kallikrein generation; also recorded: kallikrein substrate Chromozyme-PK conversion is only observed when in addition 125 μg/ml HSA is included in the assay”. The “Activation of factor XII (summary)” value in experiment [3] (summary Table 9) is reported as “Activation of factor XII”. Besides, the “activation of factor XII by compound alone” value is reported as “factor XII/kallikrein activity comparable to control buffer” in experiment [3] (listed as Ellagic acid, hydrate) and “poor activators of factor XII” in experiment [3] (listed as ellagic acid, hydrate). Further, the “influence on tPA protease activity of OVA heated in the presence of compound” value in experiment [4] is recorded as “Potentiation of tPA protease activity”.
`COc1cc2c(cc1OC)-c1c(O)c(OC)cc3c1[C@H](C2)N(C)CC3` [compound 201, Thaliporphine, thalicmidine]: the “% tPA binding to Hb-AGE (co-incubation)” value in experiment [5] is on record as 30%. In experiment [6] (thalicmidine), the “Use or activity in vitro/in vivo” value was “increased survival rate of LPS-treated mice; also recorded: suppression of TNFα, NO. and O^2− production; also recorded: stimulated splenocyte proliferation induced by LPS; also recorded: potent vasoconstrictor”. Besides, the “Signal (a.u.)” value in experiment [2] (Nunc Maxisorp, coat 100 μg/ml, Hb-AGE 0.1 μg/ml) stood at 0.55 a.u.
Turning to `COc1cc2c(cc1O)C[C@H]1c3c(cc(OC)c(O)c3-2)CCN1C` [compound 202, Isoboldine], the “Signal (a.u.)” value in experiment [1] (Nunc Maxisorp, coat 100 μg/ml) turned out to be 0.11 a.u; in experiment [1] (Nunc amino Immobilizer, coat 1 μg/ml) it was 0.08 a.u; in experiment [2] (Nunc Maxisorp, coat 100 μg/ml, Hb-AGE 1 μg/ml), 0.46 a.u; in experiment [2] (Nunc amino Immobilizer, coat 1 μg/ml, Hb-AGE 10 μg/ml), 0.20 a.u. Also, the “% tPA binding to Hb-AGE (co-incubation)” value in experiment [5] is 250%. The “Use or activity in vitro/in vivo” value in experiment [6] is reported as “potency to suppress LPS-induced proliferation in vitro; also recorded: potent antiplasmodial activity”.

The values above are taken from patent US20080267948A1, “Croos-B Structure Binding Compounds” (priority 2005, published 2008).
